For data set [1], the target named is T1, LRH-1 (Homo sapiens, UniProt O00482). Kind of data set: human LRH-1 transactivation, HeLa cotransfection with LRH-1/SF-1 response element luciferase reporter. The following applies: HeLa cells, 100 μM. The data set is classed as cell-based. More on the design: expressed in transfected cells; host or cells: HeLa (A1, A3). The method, then:
Controls (vector only and no lipid) are as indicated. […] Cells were treated with 100 μM of the indicated PCs and luciferase expression (RLU, relative light units) was normalized using an internal β-galactosidase control. vec, empty vector; −, ethanol solvent control.
HeLa cells were transfected with an hLRH-1 expression vector along with mSHP1080-Luc reporter. […] Oct4-PPmut Luc is identical to Oct4-PP Luc except for the insertion of point mutations in the DR0 element. […] HeLa cells were cotransfected with various nuclear receptors and the reporter plasmid (RE-tk-luc). […] Data are expressed for each reporter as fold activation of normalized luciferase activity relative to veh-treated cells.
A number of different phosphatidylcholine (PC) species were screened for effects on human LRH-1 transactivation in HeLa cell cotransfections with a synthetic luciferase reporter containing multiple copies of an LRH-1/SF-1 response element.
On the technique in general: A reporter such as luciferase makes a cellular process visible.

Another data set deals with human PXR (Homo sapiens, UniProt O75469). The data set can be described thus: nuclear receptor cotransfection (RE-tk-luc), HeLa cells. The following applies: 100 μM.
The target in another data set is PPARδ (Homo sapiens, UniProt Q03181). The data set is described as above. The following applies: 100 μM.
Sequence of PPARδ (Q03181 whole entry, species assumed): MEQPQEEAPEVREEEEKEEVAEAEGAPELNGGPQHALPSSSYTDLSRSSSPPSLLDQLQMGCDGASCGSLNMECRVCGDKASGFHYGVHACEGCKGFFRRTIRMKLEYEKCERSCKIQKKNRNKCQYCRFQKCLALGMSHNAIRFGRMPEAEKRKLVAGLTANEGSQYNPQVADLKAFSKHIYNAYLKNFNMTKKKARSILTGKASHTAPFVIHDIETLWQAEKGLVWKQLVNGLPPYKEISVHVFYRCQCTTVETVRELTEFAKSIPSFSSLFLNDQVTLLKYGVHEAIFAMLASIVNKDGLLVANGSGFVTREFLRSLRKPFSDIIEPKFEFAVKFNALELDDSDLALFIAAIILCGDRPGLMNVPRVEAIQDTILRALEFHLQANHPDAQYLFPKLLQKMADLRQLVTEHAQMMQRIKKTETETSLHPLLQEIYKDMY
A further data set concerns the target RXRα (Homo sapiens, UniProt P19793). Described as above. The following applies: 100 μM.
For data set [2], the target named is T2, SF-1 (Homo sapiens, UniProt Q13285). Kind of data set: SF-1 transactivation, reporter cotransfection in HeLa cells.
T2 sequence (Q13285 whole entry): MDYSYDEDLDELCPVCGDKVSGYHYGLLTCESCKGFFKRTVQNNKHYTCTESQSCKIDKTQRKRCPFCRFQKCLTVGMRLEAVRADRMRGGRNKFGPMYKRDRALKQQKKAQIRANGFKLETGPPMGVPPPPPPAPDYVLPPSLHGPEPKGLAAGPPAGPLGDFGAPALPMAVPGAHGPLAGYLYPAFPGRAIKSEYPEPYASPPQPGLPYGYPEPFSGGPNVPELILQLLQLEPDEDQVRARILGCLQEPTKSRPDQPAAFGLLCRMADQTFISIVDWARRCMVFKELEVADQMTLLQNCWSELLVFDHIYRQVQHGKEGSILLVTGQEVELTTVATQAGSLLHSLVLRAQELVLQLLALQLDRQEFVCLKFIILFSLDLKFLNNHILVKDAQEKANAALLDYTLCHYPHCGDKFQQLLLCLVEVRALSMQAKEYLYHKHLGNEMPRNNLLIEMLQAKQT
A further data set addresses mouse CAR (Mus musculus, UniProt O35627). The data set can be described thus: nuclear receptor cotransfection (RE-tk-luc), HeLa cells. The conditions noted are these: 100 μM.
A further data set concerns the target PPARα (Homo sapiens, UniProt Q07869). Described as above. The following applies: 100 μM.
In a further data set the target is LXRα (Homo sapiens, UniProt Q13133). Described as above. The following applies: 100 μM.
A further data set deals with ERα (Homo sapiens, UniProt P03372). Described as above. The following applies: 100 μM.
Sequence of ERα (P03372 whole entry, species assumed): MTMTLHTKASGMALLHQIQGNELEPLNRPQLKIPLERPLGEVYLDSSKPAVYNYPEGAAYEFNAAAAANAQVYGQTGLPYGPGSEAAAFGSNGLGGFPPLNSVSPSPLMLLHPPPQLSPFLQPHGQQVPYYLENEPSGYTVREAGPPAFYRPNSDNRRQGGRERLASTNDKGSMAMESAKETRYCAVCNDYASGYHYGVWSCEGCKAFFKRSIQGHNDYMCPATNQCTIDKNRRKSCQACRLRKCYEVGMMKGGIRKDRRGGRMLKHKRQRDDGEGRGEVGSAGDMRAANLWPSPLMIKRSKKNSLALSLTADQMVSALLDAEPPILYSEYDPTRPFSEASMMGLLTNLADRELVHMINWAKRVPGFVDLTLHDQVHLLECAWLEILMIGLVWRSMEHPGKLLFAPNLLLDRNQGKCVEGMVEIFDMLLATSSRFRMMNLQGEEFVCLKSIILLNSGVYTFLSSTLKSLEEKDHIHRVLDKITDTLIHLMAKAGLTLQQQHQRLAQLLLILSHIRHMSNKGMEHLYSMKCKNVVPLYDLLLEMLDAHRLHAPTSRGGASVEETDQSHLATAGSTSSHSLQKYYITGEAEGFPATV
For a further data set, the target named is human CAR (Homo sapiens, UniProt Q14994). The description is as above. The following applies: 100 μM.
Sequence of human CAR (Q14994 whole entry): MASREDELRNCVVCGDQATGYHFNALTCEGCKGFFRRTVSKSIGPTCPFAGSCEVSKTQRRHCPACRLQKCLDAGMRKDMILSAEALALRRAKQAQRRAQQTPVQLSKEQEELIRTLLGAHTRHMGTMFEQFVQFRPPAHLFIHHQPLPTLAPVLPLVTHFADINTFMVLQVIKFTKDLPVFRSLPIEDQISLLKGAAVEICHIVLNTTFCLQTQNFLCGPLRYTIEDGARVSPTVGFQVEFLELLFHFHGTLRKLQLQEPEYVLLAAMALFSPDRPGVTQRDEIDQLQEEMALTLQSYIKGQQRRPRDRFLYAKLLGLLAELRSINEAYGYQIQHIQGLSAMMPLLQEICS
Data set [3] deals with db/db mice. Kind of data set: body and organ weights, serum and hepatic parameters in db/db mice.
A further data set has as its target TRβ (Homo sapiens, UniProt P10828). The data set can be described thus: nuclear receptor cotransfection (RE-tk-luc), HeLa cells. The conditions noted are these: 100 μM.
The next data set concerns hepatic gene expression. Kind of data set: hepatic mRNA levels in db/db mice.
The subject of data set [4] is hepatic expression of Cyp7A1, Cyp8B1, mSR-BI, SHP. Kind of data set: hepatic gene expression (Q-PCR) in wild type mice after oral gavage. Type of data set: in vivo, mouse. The following applies: 100 mg/kg oral, five times over three days. The text has this: (§1) Total liver RNA was isolated and prepared for the cDNA. […] Total liver RNA was isolated and prepared for cDNA.

In the next data set the target is FXR (Homo sapiens, UniProt Q96RI1). Kind of data set: nuclear receptor cotransfection (RE-tk-luc), HeLa cells. The following applies: 100 μM.
The next data set concerns the target RARβ (Homo sapiens, UniProt P10826). The data set is described as above. The following applies: 100 μM.
Another data set deals with LRH-1 target Cyp8B1. Kind of data set: hCYP8B1 expression by Q-PCR in C3A HepG2 cells. The conditions noted are these: for expression of Cyp8B1: C3A/HepG2 cells or cells with non-target control siRNAs.
In another data set the target is PPARγ (Homo sapiens, UniProt P37231). The data set can be described thus: nuclear receptor cotransfection (RE-tk-luc), HeLa cells. The following applies: 100 μM.
The next data set deals with wild type male mice. The data set can be described thus: bile acids, serum glucose and NEFA in wild type mice after oral gavage. Type of data set: in vivo, mouse. The conditions noted are these: 100 mg/kg oral.
The subject of data set [5] is db/db mice. Kind of data set: glucose tolerance and insulin tolerance tests in db/db mice. The data set is classed as in vivo, mouse. The conditions noted are these: for glucose tolerance test (GTT): oral gavage 2 weeks. On the procedure:
Glucose tolerance (GTT: 1.5 g/kg i.p.) was assessed in fasted mice. One week later, insulin tolerance (ITT: 2 U/kg i.p) was assessed in fed mice. In the ITT, glucose levels after insulin injection are presented as the percentage of initial glucose concentrations.
After 1 week of additional treatment, the same mice were given an insulin tolerance test (ITT) and sacrificed.

For data set [6], the target named is T1, LRH-1. The data set can be described thus: LRH-1 Luc reporter in C3A HepG2 cells (endogenous hLRH-1). The conditions noted are these: C3A/HepG2 cells or cells with non-target control siRNAs.
The target in data set [7] is T1, LRH-1. Kind of data set: Oct4 proximal promoter (Oct4-PP Luc) activation by hLRH-1 in COS-1 cells. The following applies: COS-1 cells, Oct4-PP Luc.
Data set [8] concerns the target hLRH-1 LBD / SRC-3 receptor interaction domain (Homo sapiens, UniProt O00482). Kind of data set: mammalian two-hybrid assay, VP16-hLRH1 LBD with Gal4-SRC3 RID in HeLa cells.
Data set [9] concerns the target T2, SF-1. More on the design: expressed in transfected cells; host or cells: HeLa. The following applies: in vitro, Li et al. Mol Cell Biol 2007; read-out: affinity of SF-1; cited from earlier work.
Data set [10] relates to LRH-1. Kind of data set: hepatic gene expression in LRH-1 f/f mice infected with Ad-Cre. The data set is classed as in vivo, mouse. The following applies: 100 mg/kg oral.
Text: as §1

pKd: −log10 of the molar value.

T1 sequence (O00482 whole entry): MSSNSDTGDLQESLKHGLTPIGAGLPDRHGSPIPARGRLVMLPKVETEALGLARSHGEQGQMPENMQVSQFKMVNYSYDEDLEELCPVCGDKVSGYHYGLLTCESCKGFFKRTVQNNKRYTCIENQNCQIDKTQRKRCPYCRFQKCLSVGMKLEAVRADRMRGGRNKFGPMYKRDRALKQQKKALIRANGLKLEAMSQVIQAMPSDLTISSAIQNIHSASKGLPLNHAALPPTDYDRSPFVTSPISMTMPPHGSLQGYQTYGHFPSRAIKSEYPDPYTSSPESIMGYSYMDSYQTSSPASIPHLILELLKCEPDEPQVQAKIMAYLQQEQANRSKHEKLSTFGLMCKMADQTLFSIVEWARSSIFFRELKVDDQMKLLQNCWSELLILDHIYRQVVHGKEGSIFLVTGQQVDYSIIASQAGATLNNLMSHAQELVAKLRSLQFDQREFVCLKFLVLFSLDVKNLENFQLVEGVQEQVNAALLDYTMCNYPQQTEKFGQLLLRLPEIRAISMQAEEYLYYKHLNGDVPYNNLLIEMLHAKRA
Sequence of hLRH-1 LBD / SRC-3 receptor interaction domain (O00482 300-539 limits assumed): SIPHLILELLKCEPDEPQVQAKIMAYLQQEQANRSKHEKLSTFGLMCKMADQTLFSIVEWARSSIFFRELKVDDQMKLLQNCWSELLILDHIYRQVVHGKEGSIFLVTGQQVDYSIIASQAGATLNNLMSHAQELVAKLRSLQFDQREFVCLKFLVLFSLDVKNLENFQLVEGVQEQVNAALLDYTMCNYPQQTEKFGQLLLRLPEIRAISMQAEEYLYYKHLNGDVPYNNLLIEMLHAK
Sequence of hLRH-1 LBD / SRC-3 receptor interaction domain (Q9Y6Q9 whole entry partner, the tested form may be a part): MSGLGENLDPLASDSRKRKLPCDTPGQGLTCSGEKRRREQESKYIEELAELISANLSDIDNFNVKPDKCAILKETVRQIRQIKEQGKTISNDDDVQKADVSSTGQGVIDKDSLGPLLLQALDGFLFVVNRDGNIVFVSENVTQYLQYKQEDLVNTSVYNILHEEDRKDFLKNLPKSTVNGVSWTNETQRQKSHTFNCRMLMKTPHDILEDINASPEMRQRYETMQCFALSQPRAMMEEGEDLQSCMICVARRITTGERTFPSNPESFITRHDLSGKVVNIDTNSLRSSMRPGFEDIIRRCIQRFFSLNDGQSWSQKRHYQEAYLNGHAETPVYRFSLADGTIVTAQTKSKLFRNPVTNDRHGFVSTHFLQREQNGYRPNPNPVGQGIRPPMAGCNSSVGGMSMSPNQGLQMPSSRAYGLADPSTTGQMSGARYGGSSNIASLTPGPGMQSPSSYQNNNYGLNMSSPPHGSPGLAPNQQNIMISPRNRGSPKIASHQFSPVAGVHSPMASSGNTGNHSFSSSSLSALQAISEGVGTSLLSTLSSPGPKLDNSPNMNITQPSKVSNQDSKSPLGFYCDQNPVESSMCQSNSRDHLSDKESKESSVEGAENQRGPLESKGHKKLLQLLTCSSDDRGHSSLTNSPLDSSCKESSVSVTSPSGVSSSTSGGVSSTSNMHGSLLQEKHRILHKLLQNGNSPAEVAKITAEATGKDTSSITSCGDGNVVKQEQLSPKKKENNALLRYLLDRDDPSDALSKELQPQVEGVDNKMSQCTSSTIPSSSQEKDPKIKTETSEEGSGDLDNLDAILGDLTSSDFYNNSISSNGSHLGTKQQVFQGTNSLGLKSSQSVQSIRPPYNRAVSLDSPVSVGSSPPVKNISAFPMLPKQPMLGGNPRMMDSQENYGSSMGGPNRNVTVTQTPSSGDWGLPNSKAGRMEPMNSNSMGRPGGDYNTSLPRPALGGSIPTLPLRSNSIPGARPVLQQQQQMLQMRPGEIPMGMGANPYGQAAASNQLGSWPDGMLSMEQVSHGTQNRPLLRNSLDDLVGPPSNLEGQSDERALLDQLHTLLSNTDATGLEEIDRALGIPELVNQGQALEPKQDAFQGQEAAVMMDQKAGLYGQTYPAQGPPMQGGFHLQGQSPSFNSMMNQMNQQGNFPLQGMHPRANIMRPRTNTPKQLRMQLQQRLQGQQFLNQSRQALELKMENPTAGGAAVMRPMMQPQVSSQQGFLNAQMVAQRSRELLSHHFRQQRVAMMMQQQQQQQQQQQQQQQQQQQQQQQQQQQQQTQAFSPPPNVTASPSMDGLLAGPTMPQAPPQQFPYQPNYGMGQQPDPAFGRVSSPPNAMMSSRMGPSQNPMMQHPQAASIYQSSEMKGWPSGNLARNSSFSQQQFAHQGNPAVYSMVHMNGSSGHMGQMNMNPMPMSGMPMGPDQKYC
Sequence of RARβ (P10826 whole entry, species assumed): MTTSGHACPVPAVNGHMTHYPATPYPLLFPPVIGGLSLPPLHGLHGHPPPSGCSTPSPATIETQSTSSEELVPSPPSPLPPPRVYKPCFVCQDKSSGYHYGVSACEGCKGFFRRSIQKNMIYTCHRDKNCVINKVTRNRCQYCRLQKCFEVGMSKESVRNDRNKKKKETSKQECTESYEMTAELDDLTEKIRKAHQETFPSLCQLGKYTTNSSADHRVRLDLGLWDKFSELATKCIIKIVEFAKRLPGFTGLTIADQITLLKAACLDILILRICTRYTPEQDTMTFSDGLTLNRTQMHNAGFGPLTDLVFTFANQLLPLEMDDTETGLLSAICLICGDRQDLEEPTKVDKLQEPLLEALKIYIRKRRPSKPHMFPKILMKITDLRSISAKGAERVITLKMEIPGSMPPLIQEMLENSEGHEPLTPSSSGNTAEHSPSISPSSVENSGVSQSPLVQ
Sequence of PPARα (Q07869 whole entry, species assumed): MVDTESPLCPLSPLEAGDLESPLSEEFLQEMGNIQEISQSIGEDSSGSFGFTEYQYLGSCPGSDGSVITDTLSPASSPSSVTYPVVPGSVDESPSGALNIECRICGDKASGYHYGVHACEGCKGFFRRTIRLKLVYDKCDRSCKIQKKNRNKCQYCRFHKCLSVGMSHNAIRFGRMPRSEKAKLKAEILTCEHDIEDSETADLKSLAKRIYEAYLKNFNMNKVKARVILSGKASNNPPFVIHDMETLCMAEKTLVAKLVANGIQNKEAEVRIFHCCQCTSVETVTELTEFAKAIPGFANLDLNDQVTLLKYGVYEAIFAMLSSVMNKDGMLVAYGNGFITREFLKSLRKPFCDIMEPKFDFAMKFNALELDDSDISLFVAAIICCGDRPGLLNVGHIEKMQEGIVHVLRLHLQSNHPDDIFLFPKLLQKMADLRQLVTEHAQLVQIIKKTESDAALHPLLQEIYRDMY

Regarding `CCCCCCCCCCCCCC(=O)OC[C@H](COP(=O)(O)OCCN)OC(=O)CCCCCCCCCCCCC` [C14:0-C14:0 PE], the “LRH-1 transactivation (luciferase)” value on LRH-1 [1] is “no activation”.
On the same count and under the same terms, in the case of `CCCCCCCCCC(=O)OC[C@H](COP(=O)(O)OCCN)OC(=O)CCCCCCCCC` [C10:0-10:0 PE] it was “no activation”.
Turning to `CCCCCCCCCCCC(=O)OCC(COP(=O)([O-])OCC[N+](C)(C)C)OC(=O)CCCCCCCCCCC` (stereo not drawn) [DLPC, dilauroylphosphatidylcholine], at human PXR, the “activation or inhibition of human PXR” value is listed as “did not activate or inhibit”. The “activation or inhibition of PPARδ” value on PPARδ is reported as “did not activate or inhibit”. Moreover, on RXRα, the “activation or inhibition of RXRα” value was “did not activate or inhibit”. For the same compound, the SF-1 activation entry at SF-1 [2] (100 μM) is listed as “activate SF-1”. Besides, the “activation or inhibition of mouse CAR” value on mouse CAR was “did not activate or inhibit”. The “activation or inhibition of PPARα” value at PPARα was “did not activate or inhibit”. Further, the “activation or inhibition of LXRα” value at LXRα is recorded as “did not activate or inhibit”. In addition, the “activation or inhibition of ERα” value at ERα is on record as “did not activate or inhibit”. The “activation or inhibition of human CAR” value on human CAR is “did not activate or inhibit”. For the same compound, in the data set on db/db mice [3], the “hepatic NEFA” value is recorded as “more modestly lowered”, the hepatic cholesterol entry is “increased”, the “hepatic triglycerides (TG)” value is “significantly decreased” and the “serum bile acid levels” value is given as “significantly increased”. Further, in the data set on db/db mice [3], the serum cholesterol entry is “modestly decreased”, the “serum free fatty acids (NEFA)” value is reported as “modestly decreased”, the total body weight entry is “not altered” and the weight of liver entry is on record as “not altered”. The “weight of reproductive fat pads” value in the data set on db/db mice [3] is “not altered”. Further, the “activation or inhibition of TRβ” value at TRβ is on record as “did not activate or inhibit”. Further, in the data set with hepatic gene expression (mouse, in vivo), the SHP expression result was “appeared to be decreased”, the “expression of ACC2” value was “significantly decreased”, the “expression of FAS” value is “significantly decreased” and the “expression of SCD-1” value is listed as “significantly decreased”. In the data set with hepatic gene expression (mouse, in vivo), the “expression of SREBP-1c” value was “significantly decreased”; the “hepatic expression of Cyp7A1” value is listed as “increased expression”; the “hepatic expression of Cyp8B1” value is “increased expression”; the “hepatic expression of genes associated with glucose homeostasis (ACC1, glucokinase, hexokinase 1 and 2, PEPCK, glucose-6-phosphatase, pyruvate carboxylase, PGC-1α)” value was “no effect”. Further, in data set [4], the “hepatic expression of Cyp7A1” value is “significantly induced”, the “hepatic expression of Cyp8B1” value was “significantly induced”, the “hepatic expression of SHP” value is listed as “repressed” and the “hepatic expression of mSR-BI” value is “significantly induced”. In addition, at FXR, the “activation or inhibition of FXR” value is “did not activate or inhibit”. Besides, the “activation or inhibition of RARβ” value on RARβ is recorded as “did not activate or inhibit”. The “expression of Cyp8B1” value in the data set with LRH-1 target Cyp8B1 is “modestly but significantly induced”. In the data set with LRH-1 target Cyp8B1 (siRNA hLRH-1), the “Cyp8B1 response when LRH-1 expression is knocked down” value is given as “lost”. In addition, the “activation or inhibition of PPARγ” value at PPARγ is reported as “did not activate or inhibit”. Further, in the data set with wild type male mice, the liver bile acids entry is recorded as “somewhat lower”, the “serum bile acid levels” value was “substantially elevated”, the “serum free fatty acids” value is on record as “decreased levels” and the serum glucose levels result is “decreased serum glucose levels”. In addition, the “total bile acid pool” value with wild type male mice was “significant increase”. Moreover, the “glucose tolerance test (GTT)” value in the data set on db/db mice [5] is reported as “remarkable improvement”. Also, the “insulin tolerance test (ITT)” value in the data set on db/db mice [5] (oral gavage 3 weeks) is “remarkable improvement”.
On to `CCCCCCCCCCCC(=O)OC[C@H](COP(=O)(O)OCCN)OC(=O)CCCCCCCCCCC` [C12:0-12:0 PE], for which, at LRH-1 [1], the “LRH-1 transactivation (luciferase)” value was “no activation”.
Consider `CCCCCCCCCCCCCCCC(=O)OC[C@H](COP(=O)([O-])OCC[N+](C)(C)C)OC(=O)CCCCCCCCCCCCCCC` [DPPC, dipalmitoyl PC, reference compound], for which the “LRH-1 Luc luciferase activity” value at LRH-1 [6] is listed as “not”. Moreover, the “response with the Oct4 promoter” value on LRH-1 [7] is on record as “not”. In the data set on db/db mice [3], the “serum bile acid levels” value was “not”, the total body weight entry was “not altered”, the weight of liver result is “not altered” and the “weight of reproductive fat pads” value was “not altered”. Also, in the data set with hepatic gene expression (db/db mice), the SR-B1 expression result was “not significantly affected”; the “hepatic expression of Cyp7A1” value is on record as “not”; the “hepatic expression of genes associated with glucose homeostasis (ACC1, glucokinase, hexokinase 1 and 2, PEPCK, glucose-6-phosphatase, pyruvate carboxylase, PGC-1α)” value is on record as “no effect”. The SHP expression entry in the data set with hepatic gene expression (db/db mice, not statistically significant) is “appeared to be decreased”. In data set [4], the “hepatic expression of Cyp7A1” value is reported as “without significant effect”, the “hepatic expression of Cyp8B1” value is recorded as “without significant effect”, the “hepatic expression of SHP” value is on record as “without significant effect” and the “hepatic expression of mSR-BI” value is “without significant effect”. Further, the “interaction of hLRH-1 LBD with SRC-3 RID” value in data set [8] was “unaffected”. Further, the “expression of Cyp8B1” value in the data set with LRH-1 target Cyp8B1 is recorded as “not”. Besides, in the data set with db/db mice [5], the “glucose tolerance test (GTT)” value is recorded as “lesser beneficial response”.
Regarding `CCCCCCCCCCCCCC(=O)OC[C@H](COP(=O)(O)O)OC(=O)CCCCCCCCCCCCC` [C14:0-C14:0 PA], the “increase of SF-1 transactivation” value on SF-1 [2] is given as 1.2-1.4 fold. Moreover, the pKd on SF-1 [9] was approximately 7.00. For the same compound, the “LRH-1 transactivation (luciferase)” value at LRH-1 [1] is on record as “no effect”.
With `C[C@H](CCC(=O)O)[C@H]1CC[C@H]2[C@@H]3[C@H](O)C[C@@H]4C[C@H](O)CC[C@]4(C)[C@H]3CC[C@]12C` [CDCA, chenodeoxycholic acid], the “LRH-1 Luc luciferase activity” value at LRH-1 [6] is “not”. Also, the “interaction of hLRH-1 LBD with SRC-3 RID” value in data set [8] was “unaffected”.
Turning to `C[C@H](CCC(=O)O)[C@H]1CC[C@H]2[C@@H]3[C@H](O)C[C@@H]4C[C@H](O)CC[C@]4(C)[C@H]3C[C@H](O)[C@]12C` [CA, cholic acid, reference compound], on LRH-1 [7], the “response with the Oct4 promoter” value is “not”. Besides, the “hepatic gene expression response when LRH-1 gene removed by Cre” value in the data set with LRH-1 [10] is “lost”. For the same compound, in [4], the “hepatic expression of Cyp7A1” value was “reduced”, the “hepatic expression of Cyp8B1” value is recorded as “reduced”, the “hepatic expression of SHP” value was “induced” and the “hepatic expression of mSR-BI” value is on record as “induced”. In the data set with wild type male mice, the liver bile acids result is “did not show statistically significant changes”, the “serum bile acid levels” value is on record as “substantially elevated”, the “serum free fatty acids” value is recorded as “decreased levels” and the serum glucose levels result is given as “not”.

(Values after patent US8410085B2, “Phospholipid compositions and uses thereof” (Baylor College of Medicine, priority 2007, dated 2013).)
